# What was measured:
# [1] = system: A. pacificum; assay: Growth-inhibition rate measurement at 50 mg/L, 24 h; assay type: cell-based, Alexandrium pacificum; settings: Alexandrium pacificum, read-out: inhibition rate against A. pacificum
# Protocol: (§1) P. minimum, A. pacificum, and S. costatum were purchased from Guangyu Biological Technology Co., Ltd. (Shanghai, China). The algae strain was cultured in F/2 medium ((12 h light: 12 h dark cycle), 20 ± 1 °C, 70 μmol m^−2 s^−1). Purchased algae were transferred to sterile conical flasks for culture; after the algae proliferation was stabilized, the expanded culture was next carried out following standard conditions.
# The stock solutions of bacillamide A and different BDs were prepared in dimethyl sulfoxide (DMSO) with the requisition amount. […] The controls received the same volume of DMSO. The inhibitory activities of bacillamide A, different BDs, and positive controls were screened by 96 well microtiter plates at different concentrations. Inhibition ratios (IRs) of cupric sulfate (50 mg/L, positive control), bacillamide A (50 mg/L), and BDs (50 mg/L) were calculated on algae using Equation (1). (1) IR=Cc0-Cex/Cc0×100%
# The CC0 and Cex, respectively, represent the algal densities of the control and experimental groups.
# [2] = system: A. pacificum; assay: Algicidal activity assay, EC50; assay type: cell-based, Alexandrium pacificum; settings: Alexandrium pacificum; Mean ± SD, n = 3
# Protocol: as §1
# (§2) Copper sulfate and Diuron were used as the positive controls. EC50 values were calculated according to the equation of the quantity–effect relationship in Equation (2) using the Hill model of Graph Pad Prism software (8.0.2). (2) Y=Bottom+(Top-Bottom)/1+10^(Log EC50-X)×Hill Slope
# (§3) The X and Y values represent the concentration (mg/L) and response values of the control and experimental groups, respectively. The Top, Bottom, and Hill Slope represent the maximum response, minimum response, and the curve slope, respectively. The EC50 represents half of the maximum effective concentration.
# [3] = system: zebrafish; assay: Zebrafish acute toxicity assay; assay type: in vivo; settings: zebrafish
# Protocol: Zebrafish acute toxicity of bacillamide A and synthesized BDs were evaluated at 0.1 mg/L, 1 mg/L, and 10 mg/L, respectively. Diuron and CuSO4 were used as positive controls. The commercial zebrafish (body length > 3.0 cm) were domesticated in aerated tap water for 24 h, fed once daily for seven consecutive days, and stopped being fed before the experiment.
# 4. Acute toxicity table S1.
# Compound Concentration Survival percent Acute
# aAccording to the Guide for Environmental Safety Assessment of Chemical Pesticides
# 4 groups and treated with different compounds for 96 h.
# [4] = system: P. minimum; assay: Algicidal activity assay, EC50; assay type: cell-based, Prorocentrum minimum; settings: Prorocentrum minimum; Mean ± SD, n = 3; read-out: EC50 P. minimum
# Protocol: as §1, §2, §3
# [5] = system: S. costatum; assay: MDA level (thiobarbituric acid assay kit); assay type: cell-based, Skeletonema costatum; settings: 10 mg/L, 72 h, versus control (DMSO)
# Protocol: (§4) P. minimum, S. costatum, and A. pacificum cells were cultured in F/2 medium. All flasks were cultivated under 12 h of light: 12 h of dark and 70 μmol m^−2 s^−1 at 20 ± 1 °C. […] Finally, the algal cells were collected and diluted in 6 mL of phosphate buffer (pH = 7.8). A small amount of quartz sand was added into the algal cells under ice bath. The obtained homogenate was next poured into a centrifuge tube and centrifuged at 5000 r/min for 25 min at 4 °C. The obtained supernatant was placed in the refrigerator at 4 °C for the next step experiment.
# (§5) The malondialdehyde (MDA) assay kit was purchased from Lvyuandade Biochemical Co, Ltd., Beijing, China. The MDA parameter was monitored according to the procedure provided by the manufacturer. A total of 1 mL of algal extract was mixed with thiobarbituric acid solution (2 mL, 0.6%). The solution was sealed and kept in a boiling water bath for 15 min, followed by being cooled and centrifuged at 4500 r/min for 10 min. The absorbance values of collected supernatant were measured and calculated by the Formula (3) at 600 nm, 532 nm, and 450 nm:MDA content (nmol∙mgprot^−1) = 6.45 × (A532 − A600) − 0.56 × A450(3)
# [6] = system: P. minimum; assay: MDA level (thiobarbituric acid assay kit); assay type: cell-based, Prorocentrum minimum; settings: 10 mg/L, 72 h, versus control (DMSO)
# Protocol: as §4, §5
# [7] = system: Salmonella choleraesuis; set-up: method as in PMID 32483303; settings: cited from earlier work
# [8] = system: S. costatum; assay: Algicidal activity assay, EC50; assay type: cell-based, Skeletonema costatum; settings: Skeletonema costatum; Mean ± SD, n = 3; read-out: EC50 S. costatum
# Protocol: as §1, §2, §3
# [9] = system: Alternaria sp.; set-up: method as in PMID 32483303; settings: cited from earlier work
# [10] = system: other microalgae (e.g., diatoms, cyanobacteria, green algae); set-up: method as in doi:10.1016/j.tetlet.2003.08.115, PMID 17454826; settings: cited from earlier work
# [11] = system: Vibrio cholerae; set-up: method as in PMID 32483303; settings: cited from earlier work
# [12] = system: PSII in S. costatum; assay: Quantum yield Fv/Fm of PSII; assay type: cell-based, Skeletonema costatum; settings: 10 mg/L, 72 h, versus negative control
# Protocol: as §4
# (§6) Fv/Fm values were determined by using AquaPen handheld algae fluorescence meter (Nanjing Mingao Instrument Co., Ltd., Nanjing, China). The algae cells were darkened for 30 min and Fv/Fm values were measured.
# [13] = system: PSII in P. minimum; assay: Quantum yield Fv/Fm of PSII; assay type: cell-based, Prorocentrum minimum; settings: 10 mg/L, 72 h, versus negative control
# Protocol: as §4, §6
compound,measurement,setting,value
CC(=O)c1nc(C(=O)NCCc2c[nH]c3ccccc23)cs1 [bacillamide A],inhibition at 50 µg/mL,[1],55.3%
same,EC50,[2],2.17 ± 0.31 µg/mL
same,Survival percent,"[3]; 0.1 mg/L, 0h",100
same,Survival percent,"[3]; 0.1 mg/L, 24h",100
same,Survival percent,"[3]; 0.1 mg/L, 48h",100
same,Survival percent,"[3]; 0.1 mg/L, 72h",100
same,Survival percent,"[3]; 0.1 mg/L, 96h",100
same,Survival percent,"[3]; 1 mg/L, 0h",100
same,Survival percent,"[3]; 1 mg/L, 24h",100
same,Survival percent,"[3]; 1 mg/L, 48h",87
same,Survival percent,"[3]; 1 mg/L, 72h",83
same,Survival percent,"[3]; 1 mg/L, 96h",83
same,Survival percent,"[3]; 10 mg/L, 0h",100
same,Survival percent,"[3]; 10 mg/L, 24h",100
same,Survival percent,"[3]; 10 mg/L, 48h",100
same,Survival percent,"[3]; 10 mg/L, 72h",100
same,Survival percent,"[3]; 10 mg/L, 96h",100
same,Acute toxicity,"[3]; class by GB/T31270.12, LC50 (96 h)","low (LC50 (96 h) > 10 mg/L, low toxicity)"
same,EC50,[4],3.93 ± 0.28 µg/mL
same,increase of MDA levels in S. costatum,[5],2.6 fold
same,increase of MDA levels in P. minimum,[6],2.0 fold
same,antibacterial activity,[7],moderate antibacterial activity
same,EC50,[8],2.51 ± 0.09 µg/mL
same,antifungal activity,[9],slight antifungal activity
same,algicidal activities against other microalgae,[10],did not display algicidal activities
same,antibacterial activity,[11],moderate antibacterial activity
same,decrease of quantum yield Fv/Fm of PSII in S. costatum,[12],4 fold
same,decrease of Fv/Fm of PSII in P. minimum,[13],2 fold

# From paper PMC11595864, “Design, Synthesis, and Evaluation of Novel Thiazole-Containing Algicides Inspired by Bacillamide A” (Marine Drugs, 2024)
